These results are taken from US9399649B2, “Compounds for treating spinal muscular atrophy” (PTC Therapeutics Inc., priority 2012, dated 2016).

In general, melting point refers to the temperature of the solid-liquid transition.

For one data set, the system named is Smn protein. Description: Smn protein assay in cultured cells (SMN HTRF). Conditions: SMA patient fibroblast cells (GM03813), 48 hours; for maximum fold (Fold) increase of Smn protein: 7-point concentration data, relative to vehicle control; for EC1.5x for Smn protein expression: 7-point concentration curve, concentration producing 1.5 times Smn protein vs DMSO vehicle. Format: cell-based, human. The procedure:
The SMN HTRF (homogeneous time resolved fluorescence) assay is used to quantify the level of Smn protein in SMA patient fibroblast cells treated with test compounds.
Cells are thawed and cultured in DMEM-10% FBS for 72 hours. Cells are trypsinized, counted and re-suspended to a concentration of 25,000 cells/mL in DMEM-10% FBS. The cell suspensions are plated at 5,000 cells per well in a 96 well microtiter plate and incubated for 3 to 5 hours. […] Test compounds are serially diluted 3.16-fold in 100% DMSO to generate a 7-point concentration curve. 1 μL of test compound solution is transferred to cell-containing wells and cells are incubated for 48 hours in a cell culture incubator (37° C., 5% CO2, 100% relative humidity). Triplicate samples are set up for each test compound concentration. After 48 hours, the supernatant is removed from the wells and 25 μL of the RIPA lysis buffer, containing protease inhibitors, is added to the wells and incubated with shaking at room temperature for 1 hour. 25 μL of the diluent is added and then 35 μL of the resulting lysate is transferred to a 384-well plate, where each well contains 5 μL of the antibody solution (1:100 dilution of anti-SMN d2 and anti-SMN kryptate in SMN reconstitution buffer). The plate is centrifuged for 1 minute to bring the solution to the bottom of the wells, then incubated overnight at room temperature. Fluorescence for each well of the plate at 665 nm and 620 nm is measured on an EnVision multilabel plate reader (Perkin-Elmer).
The normalized fluorescence signal is calculated for each sample, Blank and vehicle control well by dividing the signal at 665 nm by the signal at 620 nm. Normalizing the signal accounts for possible fluorescence quenching due to the matrix effect of the lysate. The ΔF value (a measurement of Smn protein abundance as a percent value) for each sample well is calculated by subtracting the normalized average fluorescence for the Blank control wells from the normalized fluorescence for each sample well, then dividing this difference by the normalized average fluorescence for the Blank control wells and multiplying the resulting value by 100. The ΔF value for each sample well represents the Smn protein abundance from test compound-treated samples. The ΔF value for each sample well is divided by the ΔF value for the vehicle control wells to calculate the fold increase in Smn protein abundance relative to the vehicle control.
A general note: In TR-FRET formats the signal depends on donor and acceptor labels being close together.

The subject of data set [1] is full length SMN2 minigene mRNA containing SMN2 exon 7. Description: SMN2 minigene mRNA splicing RT-qPCR assay in cultured cells. Format: cell-based, human. Conditions: Homo sapiens, HEK293-H; HEK293H cells stably transfected with SMN2-A minigene, 24 hours, 7-point concentration curve; concentration giving 1.5-fold full length SMN2 mRNA vs vehicle; read-out: EC1.5x for production of full length SMN2 mRNA. Here is the method: The reverse transcription-quantitative PCR-based (RT-qPCR) assay is used to quantify the level of the full length SMN2 minigene mRNA containing SMN2 exon 7 in a HEK293H cell line stably transfected with said minigene and treated with a test compound.
HEK293H cells stably transfected with the SMN2-A minigene construct described above (10,000 cells/well) are seeded in 200 ut, of cell culture medium (DMEM plus 10% FBS, with 200 μg/mL hygromycin) in 96-well flat-bottom plates and the plate is immediately swirled to ensure proper dispersal of cells, forming an even monolayer of cells. Cells are allowed to attach for at least 4-6 hours. Test compounds are serially diluted 3.16-fold in 100% DMSO to generate a 7-point concentration curve. A solution of test compound (1 μL, 200× in DMSO) is added to each cell-containing well and the plate is incubated for 24 hours in a cell culture incubator (37° C., 5% CO2, 100% relative humidity). 2 replicates are prepared for each test compound concentration. The cells are then lysed in Cells-To-Ct lysis buffer and the lysate is stored at −80° C.
Primer SMN Forward A (SEQ ID NO. 1) hybridizes to a nucleotide sequence in exon 7 (nucleotide 22 to nucleotide 40), primer SMN Reverse A (SEQ ID NO. 2) hybridizes to a nucleotide sequence in the coding sequence of Firefly luciferase, SMN Probe A (SEQ ID NO. 3) hybridizes to a nucleotide sequence in exon 7 (nucleotide 50 to nucleotide 54) and exon 8 (nucleotide 1 to nucleotide 21). The combination of these three oligonucleotides detects only SMN1 or SMN2 minigenes (RT-qPCR) and will not detect endogenous SMN1 or SMN2 genes.
The SMN forward and reverse primers are used at final concentrations of 0.4 μM. The SMN probe is used at a final concentration of 0.15 μM. The GAPDH primers are used at final concentrations of 0.2 μM and the probe at 0.15 μM.
The SMN2-minigene GAPDH mix (15 μL total volume) is prepared by combining 7.5 μL of 2×RT-PCR buffer, 0.4 μL of 25×RT-PCR enzyme mix, 0.75 μL of 20×GAPDH primer-probe mix, 4.0075 μL of water, 2 μL of 10-fold diluted cell lysate, 0.06 μL of 100 μM SMN forward primer, 0.06 μL of 100 μM SMN reverse primer, and 0.225 μL of 100 μM SMN probe.
PCR is carried out at the following temperatures for the indicated time: Step 1: 48° C. (15 min); Step 2: 95° C. (10 min); Step 3: 95° C. (15 sec); Step 4: 60° C. (1 min); then repeat Steps 3 and 4 for a total of 40 cycles.
Each reaction mixture contains both SMN2-A minigene and GAPDH primersprobe sets (multiplex design), allowing simultaneous measurement of the levels of two transcripts.
Two SMN spliced products are generated from the SMN2 minigene. The first spliced product containing exon 7, corresponding to full length SMN2 mRNA, is referred to herein using the term “SMN2 minigene FL.” The second spliced product lacking exon 7 is referred to herein using the term “SMN2 minigene Δ7.”
The increase of SMN2 minigene FL mRNA relative to that in cells treated with vehicle control is determined from real-time PCR data using a modified ΔΔCt method (as described in Livak and Schmittgen, Methods, 2001, 25:402-8). The amplification efficiency (E) is calculated from the slope of the amplification curve for SMN2 minigene FL and GAPDH individually. The abundances of SMN2 minigene FL and GAPDH are then calculated as (1+E)^−Ct, where Ct is the threshold value for each amplicon. The abundance of SMN2 minigene FL is normalized to GAPDH abundance. The normalized SMN2 minigene FL abundance from test compound-treated samples is then divided by normalized SMN2 minigene FL abundance from vehicle-treated cells to determine the level of SMN2 FL mRNA relative to vehicle control.
On the technique in general: In qPCR the cycle at which signal appears reflects the starting amount.

Some results are limits rather than exact numbers.

Compound `COc1cccc(-c2cc3ccc(N4CCN(C)CC4)cc3c(=O)o2)c1` [Cpd 19, 3-(3-methoxyphenyl)-7-(4-methylpiperazin-1-yl)-1H-isochromen-1-one] showed a melting point of 140 to 142 °C. Besides, the “maximum fold (Fold) increase of Smn protein” value (from here on “maximum fold (Fold) increase”) with Smn protein was “* (A maximum fold increase of ≦1.2 is indicated by one star (*))”. The EC (1.5-fold) in data set [1] lay within 3 to 30 µM.
The compound `CCN1CCN(c2ccc3cc(-c4cn5cc(C)nc(C)c5n4)oc(=O)c3c2)C[C@H]1C` [Cpd 140, 3-(6,8-dimethylimidazo[1,2-a]pyrazin-2-yl)-7-[(3R)-4-ethyl-3-methylpiperazin-1-yl]-1H-isochromen-1-one] had a melting point of 243 to 246 °C. Further, in the data set on Smn protein, the “EC1.5x for Smn protein expression” value is “**** (an EC1.5×≦0.3 nM is indicated by four stars (****))” and the “maximum fold (Fold) increase” value is reported as “***** (a fold increase >1.65 is indicated by five stars (*****))”. For the same compound, in data set [1], the EC (1.5-fold) was no more than 0.1 µM.
Taken in the same sequence, the figures for `Cc1cn2cc(-c3cc4ccc(C5CCNCC5)cc4c(=O)o3)nc2c(C)n1` [Cpd 96, 3-(6,8-dimethylimidazo[1,2-a]pyrazin-2-yl)-7-(piperidin-4-yl)-1H-isochromen-1-one] were 218 to 220 °C, “**** (an EC1.5×≦0.3 nM is indicated by four stars (****))”, “***** (a fold increase >1.65 is indicated by five stars (*****))” and no more than 0.1 µM.
As to `C[C@@H]1CN(c2ccc3cc(-c4ccccn4)oc(=O)c3c2)C[C@H](C)N1` [Cpd 5, 7-[(3R,5S)-3,5-dimethylpiperazin-1-yl]-3-(pyridin-2-yl)-1H-isochromen-1-one], the melting point lay within 168 to 170 °C. Further, in the data set on Smn protein, the “maximum fold (Fold) increase” value is on record as “* (A maximum fold increase of ≦1.2 is indicated by one star (*))”. In addition, the EC (1.5-fold) in data set [1] was 1 to 3 µM.
In the case of `CCCN1CCN(c2ccc3cc(-c4cn5cc(C)nc(C)c5n4)oc(=O)c3c2)CC1` [Cpd 82, 3-(6,8-dimethylimidazo[1,2-a]pyrazin-2-yl)-7-(4-propylpiperazin-1-yl)-1H-isochromen-1-one], the melting point lay within 244 to 246 °C. In addition, in the data set on Smn protein, the “EC1.5x for Smn protein expression” value is “**** (an EC1.5×≦0.3 nM is indicated by four stars (****))” and the “maximum fold (Fold) increase” value is given as “***** (a fold increase >1.65 is indicated by five stars (*****))”. For the same compound, the EC (1.5-fold) in data set [1] was no more than 0.1 µM.
`Cc1cn2cc(-c3cc4ccc(N5CCN(C6CCC6)[C@H](C)C5)cc4c(=O)o3)nc2c(C)n1` [Cpd 143, 7-[(3R)-4-cyclobutyl-3-methylpiperazin-1-yl]-3-(6,8-dimethylimidazo[1,2-a]pyrazin-2-yl)-1H-isochromen-1-one] registered a melting point of 281 to 285 °C. In addition, in the data set with Smn protein, the “EC1.5x for Smn protein expression” value is “**** (an EC1.5×≦0.3 nM is indicated by four stars (****))” and the “maximum fold (Fold) increase” value was “***** (a fold increase >1.65 is indicated by five stars (*****))”. Also, the EC (1.5-fold) in data set [1] was no more than 0.1 µM.
Consider `CCN1CC=C(c2ccc3cc(-c4cn5cc(C)nc(C)c5n4)oc(=O)c3c2)CC1` [Cpd 90, 3-(6,8-dimethylimidazo[1,2-a]pyrazin-2-yl)-7-(1-ethyl-1,2,3,6-tetrahydropyridin-4-yl)-1H-isochromen-1-one], for which the melting point is 227 to 229 °C. For the same compound, in the data set on Smn protein, the “EC1.5x for Smn protein expression” value is reported as “**** (an EC1.5×≦0.3 nM is indicated by four stars (****))” and the “maximum fold (Fold) increase” value is given as “***** (a fold increase >1.65 is indicated by five stars (*****))”. Also, the EC (1.5-fold) in data set [1] is no more than 0.1 µM.
Taken in the same sequence, the figures for `Cc1cn2cc(-c3cc4ccc(N5C[C@@H](C)N(C)[C@@H](C)C5)cc4c(=O)o3)nc2c(C)n1` [Cpd 149, 3-(6,8-dimethylimidazo[1,2-a]pyrazin-2-yl)-7-[(3R,5S)-3,4,5-trimethylpiperazin-1-yl]-1H-isochromen-1-one] were 261 to 266 °C, “**** (an EC1.5×≦0.3 nM is indicated by four stars (****))”, “***** (a fold increase >1.65 is indicated by five stars (*****))” and no more than 0.1 µM.
In the case of `Cc1cn2cc(-c3cc4ccc(N5CCC(O)CC5)cc4c(=O)o3)nc2c(C)n1` [Cpd 123, 3-(6,8-dimethylimidazo[1,2-a]pyrazin-2-yl)-7-(4-hydroxypiperidin-1-yl)-1H-isochromen-1-one], the melting point lay within 290 to 292 °C. Further, the “maximum fold (Fold) increase” value in the data set with Smn protein is “* (A maximum fold increase of ≦1.2 is indicated by one star (*))”. Besides, in data set [1], the EC (1.5-fold) was 1 to 3 µM.
Take `Cc1cn2cc(-c3cc4ccc(N5CCN(C)[C@H](C)C5)cc4c(=O)o3)nc2cn1` [Cpd 127, 7-[(3R)-3,4-dimethylpiperazin-1-yl]-3-(6-methylimidazo[1,2-a]pyrazin-2-yl)-1H-isochromen-1-one]: the melting point fell in the range of 243 to 248 °C. Besides, in the data set with Smn protein, the “EC1.5x for Smn protein expression” value was “**** (an EC1.5×≦0.3 nM is indicated by four stars (****))” and the “maximum fold (Fold) increase” value is “***** (a fold increase >1.65 is indicated by five stars (*****))”. In data set [1], the EC (1.5-fold) was no more than 0.1 µM.
`CN1CCN(c2ccc3cc(-c4ccc5nn(C)cc5c4)oc(=O)c3c2)CC1` [Cpd 157, 3-(2-methyl-2H-indazol-5-yl)-7-(4-methylpiperazin-1-yl)-1H-isochromen-1-one] came in with a melting point of 239 to 240 °C. Further, in the data set on Smn protein, the “EC1.5x for Smn protein expression” value is “**** (an EC1.5×≦0.3 nM is indicated by four stars (****))”; the “maximum fold (Fold) increase” value was “**** (a fold increase between >1.5 and ≦1.65 is indicated by four stars (****))”. In addition, in data set [1], the EC (1.5-fold) is no more than 0.1 µM.
